Assay results: patent US4732909A, “3-(3-halophenyl-3,4-diazatetracyclo-[6.3.1.1^6,10.0^1,5 ]tridec-4-en-2-one compounds and use thereof to treat hypoxia” (Pennwalt Corporation, priority 1987, dated 1988)

Experiments:
mice = assay: antihypoxia test: survival duration of mice in normobaric atmosphere of 96% nitrogen and 4% oxygen; type: in vivo
Description: The antihypoxia test measures the survival duration of mice in a normobaric atmosphere consisting of 96% nitrogen and 4% oxygen, at ambient temperature. The mice are considered dead when they stop visible aspiration. The test indicates potential clinical utility in situations of central nervous system hypoxia, such as occurs following stroke, cardiac arrest, and traumatic accidents.

Estimated LD50 = type: in vivo; conditions: ip
in vivo = conditions: ip

With `O=C1N(c2cccc(Cl)c2)N=C2C3CC4CC(C3)CC12C4` [3-(3-Chlorophenyl)-3,4-diazatetracyclo[6.3.1.1^6,10.0^1,5]tridec-4-en-2-one] the “Antihypoxia, Survial Minutes, Compound” value (mice; 2.5 mg/kg ip, N=10, ambient temp., control 8.7, P NS (P > 0.05)) was 8.0 min, the “Antihypoxia, Survial Minutes, Compound” value (mice; 5 mg/kg ip, N=10, ambient temp., control 8.7, P <0.05) was 10.5 min and the “Antihypoxia, Survial Minutes, Compound” value (mice; 10 mg/kg ip, N=10, ambient temp., control 6.9, P <0.05) was 9.5 min. The “Antihypoxia, Survial Minutes, Compound” value (mice; 25 mg/kg ip, N=5, ambient temp., control 8.7, P 0.075) was 13.0 min, the “Antihypoxia, Survial Minutes, Compound” value (mice; 25 mg/kg ip, N=10, ambient temp., control 6.9, P <0.05) was 12.6 min and the “prolongation of survival of mice (in words)” value (mice; 25 mg/kg, intraperitoneally) was “prolonged the survival of mice by a very significant margin”. For the same molecule, the “Estimated LD50” value (Estimated LD50) was over 100 mg/kg and the TD50 (in vivo) was 25 mg/kg.
